Series [1] has as its target T1, MbtI (Mycobacterium tuberculosis, UniProt P9WFX1).
T1 construct: made in house
The experiment in a line: MbtI fluorimetric enzyme inhibition assay. The settings on record: for remaining activity at 100 µM / % RA (percentage of residual enzymatic activity): 100 μM test compound, 50 μM chorismic acid; for remaining activity at 100 µM: read-out: % RA (percentage of residual enzymatic activity); for IC50: recombinant MbtI. It is filed as biochemical. The procedure: MbtI from Mtb was produced in recombinant form, and enzyme activity was determined using a fluorimetric assay, as previously reported.[38] For the inhibition studies, the activity was determined in the presence of 100 μM of the test compound and 50 μM of chorismic acid. For compounds that inhibited more than 80% of the initial activity, IC50 values were calculated using eq 1 and GraphPad Prism 8.0 software [drawing 1] 1 where A[I] is the activity at inhibitor concentration [I] and A[0] is the activity in the absence of the inhibitor.

Series [2] has as its system M. bovis BCG. In words: microbe, parasite or virus in culture. It is filed as cell-based. The settings on record: for MIC99: Mycobacterium tuberculosis variant bovis BCG, BCG; for antimycobacterial effect (in words): M. bovis BCG, REMA.
A further series is described as follows: Polymersome size by DLS. The format is physicochemical. The settings on record: three independent batches. The procedure: The purified solutions were then analyzed by Transmission Electron Microscopy (TEM) on a Jeol JEM 1010 100 kV microscope, equipped with a Megaview 1kx1k CCD (Jeol Ltd., Tokyo, Japan). Copper grids were glow-discharged, and the sample was adsorbed onto the grid. The sample was stained with 1 wt % phosphotungstic acid (PTA) adjusted to pH 7.4 with NaOH. All the TEM analyses were performed with dried samples. The nanoparticle size distribution was characterized by DLS analyses (DLS PN3704 Zetasizer, Malvern Panalytical) using a copolymer concentration of 0.20 mg/mL. For each analysis, 3 measurements were carried out, based on 11 runs. Samples were analyzed at 25 °C with a scattering angle of 173° and a 633 nm HeNe laser, based on a material refractive index (RI) of 1.59, a dispersant refractive index of 1.330, and a viscosity of 0.89. Drug encapsulation was measured by RP-HPLC (Dionex UltiMate 3000, ThermoFisher Scientific). A gradient of water + TFA 0.05% (A) and MeOH + TFA 0.05% (B) from 0 min (30% B) to 30 min (100% B) was used to run the samples through a Jupiter 5 μm C18 300 Å, 150 × 4.6 mm column (Phenomenex, Torrance, CA). The peak area was integrated by using Chromeleon version 6.8 (ThermoFisher Scientific).

Series [3] concerns mouse alveolar-like macrophages (MPI-2 cell line). The experiment in a line: MTT viability assay on mAMs. It is filed as cell-based. The settings on record: 24 h exposure, 200, 100, 50 and 25 μM. The method, then:
Cell viability was evaluated on human monocytes (THP-1 cell line), human lung fibroblasts (HLF cell line), and mouse alveolar-like macrophages (MPI-2 cell line) using the thiazolyl blue tetrazolium bromide method (MTT; chemicals acquired from Sigma-Aldrich, Merck KGaA).
(Tetrazolium assays rely on reduction of a dye to a coloured formazan, in cell work by metabolically active cells.)

The test system of series [4] is Mtb-infected murine alveolar-like macrophages (mAMs). The format is cell-based, Mycobacterium tuberculosis.
Series [5] has as its system M. bovis BCG. Conditions: cited from earlier work.
The next series relates to Mtb H37Rv. Further details: method as in PMID 32530281. Conditions: compound I; cited from earlier work.
Another series relates to human cell lines. Further details: method as in PMID 30889995, PMID 36015139. Conditions: several human cell lines; cited from earlier work.
Series [6] addresses T1, MbtI. The settings on record: compound II; cited from earlier work.
The subject of series [7] is mycobacterial efflux pumps. The format is cell-based, M. bovis BCG. The settings on record: MIC99 with reserpine 32 μg/mL or verapamil 125 μg/mL (1/2 MIC).
In a further series the test system is siderophore production. The format is cell-based. The settings on record: M. bovis BCG grown with different concentrations of compound.
For series [8], the system named is M. bovis BCG. It is filed as cell-based. The settings on record: 1 × MIC and 10 × MIC, low-iron chelated Sauton's medium.

Structures are written as SMILES. Values after ≈ are worked out from the molar mass of the structure shown. “Also recorded” adds a separate entry of the source. Like-named read-outs stand apart in the source and are kept apart here.

T1 sequence (P9WFX1 whole entry): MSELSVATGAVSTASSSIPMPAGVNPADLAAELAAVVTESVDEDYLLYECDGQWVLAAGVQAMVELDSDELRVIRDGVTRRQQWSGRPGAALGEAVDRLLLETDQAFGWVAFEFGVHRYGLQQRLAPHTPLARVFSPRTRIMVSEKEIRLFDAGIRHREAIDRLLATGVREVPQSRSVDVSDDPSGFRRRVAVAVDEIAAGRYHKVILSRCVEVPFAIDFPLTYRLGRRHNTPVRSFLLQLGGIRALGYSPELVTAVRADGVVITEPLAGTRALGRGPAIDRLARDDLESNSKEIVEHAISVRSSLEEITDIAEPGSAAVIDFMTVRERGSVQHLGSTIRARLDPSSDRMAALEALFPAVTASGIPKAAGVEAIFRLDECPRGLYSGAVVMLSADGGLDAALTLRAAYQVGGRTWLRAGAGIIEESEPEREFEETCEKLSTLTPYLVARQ

One may read the IC50 as the concentration needed to halve the response being measured. Regarding `CCCCCOc1cc(C#N)cc(-c2ccc(C(=O)O)o2)c1` [Compound 1i, 5-(3-Cyano-5-(pentyloxy)phenyl)furan-2-carboxylic Acid], on MbtI [1], the remaining activity at 100 µM was found to be 0.4 ± 0.2% and the IC50 was 6.8 ± 0.1 µM. The MIC99 against M. bovis BCG [2] turned out to be 125 µM (≈ 37.4 µg/mL).
On the same counts, the results for `CC(C)(C)COc1cc(C#N)cc(-c2ccc(C(=O)O)o2)c1` [Compound 1h, 5-(3-Cyano-5-(neopentyloxy)phenyl)furan-2-carboxylic Acid] are 6.8 ± 3.1%, 18.6 ± 1.5 µM and 125 µM (≈ 37.4 µg/mL).
On the same counts, the results for `CC=CCOc1cc(C#N)cc(-c2ccc(C(=O)O)o2)c1` [Compound 1m, 5-(3-(But-2-en-1-yloxy)-5-cyanophenyl)furan-2-carboxylic Acid] are 7.5 ± 0.3%, 3.1 ± 0.7 µM and 125 µM (≈ 35.4 µg/mL).
`C/C=C/C=C/C=C/COc1cc(C#N)cc(-c2ccc(C(=O)O)o2)c1` [Compound 1o, 5-(3-Cyano-5-((2E,4E,6E)-octa-2,4,6-trien-1-yloxy)phenyl)furan-2-carboxylic Acid]: at MbtI [1], the remaining activity at 100 µM worked out at 18.4 ± 3.8% and the IC50 was 9.2 ± 2.4 µM. In the series on M. bovis BCG [2], the “antimycobacterial effect (in words)” value is on record as “completely abolished the antimycobacterial effect” and the MIC99 is more than 500 µM.
With `N#Cc1cc(OCC2CCC2)cc(-c2ccc(C(=O)O)o2)c1` [Compound 1g, 5-(3-Cyano-5-(cyclobutylmethoxy)phenyl)furan-2-carboxylic Acid], on MbtI [1], the “% RA (percentage of residual enzymatic activity)” value came out at 30.4 ± 6.3% and the remaining activity at 100 µM was determined as 30%. Moreover, the MIC99 in the series on M. bovis BCG [2] is 250 µM (≈ 74.3 µg/mL).
On to `CCCCCCCCOc1cc(C#N)cc(-c2ccc(C(=O)O)o2)c1` [Compound 1l, 5-(3-Cyano-5-(octyloxy)phenyl)furan-2-carboxylic Acid], for which, at MbtI [1], the “% RA (percentage of residual enzymatic activity)” value is 40.0 ± 4.1% and the remaining activity at 100 µM is 40%.
Take `C/C=C/C=C/COc1cc(C#N)cc(-c2ccc(C(=O)O)o2)c1` [Compound 1n, 5-(3-Cyano-5-((2E,4E)-hexa-2,4-dien-1-yloxy)phenyl)furan-2-carboxylic Acid]: at MbtI [1], the remaining activity at 100 µM was 10 ± 3.6% and the IC50 worked out at 16.6 ± 2.1 µM. For the same compound, in the series on M. bovis BCG [2], the “antimycobacterial effect (in words)” value was “completely abolished the antimycobacterial effect” and the MIC99 is more than 500 µM.
Turning to `CC(C)Oc1cc(C#N)cc(-c2ccc(C(=O)O)o2)c1` [Compound 1b, 5-(3-Cyano-5-isopropoxyphenyl)furan-2-carboxylic Acid], at MbtI [1], the remaining activity at 100 µM was 12.1 ± 2.9% and the IC50 worked out at 21.1 ± 0.6 µM. This compound also yielded an MIC99 against M. bovis BCG [2] of more than 500 µM.
With `CCCOC(=O)c1ccc(-c2cc(C#N)cc(OCC(C)C)c2)o1` [Compound 2eb, Propyl 5-(3-Cyano-5-isobutoxyphenyl)furan-2-carboxylate], the remaining activity at 100 µM on MbtI [1] stood at 94 ± 9.3%. The same compound gave an MIC99 with M. bovis BCG [2] of 125 µM (≈ 40.9 µg/mL). Also, the “average size (hydrodynamic diameter) of drug-containing POs” value in “Polymersome size by DLS” worked out at 45.68 ± 1.86 nm. For the same compound, the “mAM viability / cytotoxic effect” value in series [3] was “increase in mAM mortality at the two highest tested concentrations (200 and 100 μM)”.
In the case of `CO[C@H]1/C=C/O[C@@]2(C)Oc3c(C)c(O)c4c(O)c(c(/C=N/N5CCN(C)CC5)c(O)c4c3C2=O)NC(=O)/C(C)=C\C=C\[C@H](C)[C@H](O)[C@@H](C)[C@@H](O)[C@@H](C)[C@H](OC(C)=O)[C@@H]1C` [Rifampicin, reference compound], the “time of peak effect on Mtb fluorescence” value in [4] (1 μg/mL (2x MIC), positive control) was 3 day post-treatment.
As for `CCOC(=O)c1ccc(-c2cc(C#N)cc(OCC(C)C)c2)o1` [Compound 2ea, Ethyl 5-(3-Cyano-5-isobutoxyphenyl)furan-2-carboxylate], at MbtI [1], the remaining activity at 100 µM worked out at 71.5 ± 7.6%. The same compound showed an MIC99 in the series on M. bovis BCG [2] of 64 µM (≈ 20.1 µg/mL). In the series “Polymersome size by DLS”, the “average size (hydrodynamic diameter) of drug-containing POs” value came out at 44.46 ± 9.58 nm. Besides, the “mAM viability / cytotoxic effect” value in series [3] was “increase in mAM mortality at the two highest tested concentrations (200 and 100 μM)”.
On to `CC(C)CCOc1cc(C#N)cc(-c2ccc(C(=O)O)o2)c1` [Compound 1j, 5-(3-Cyano-5-(isopentyloxy)phenyl)furan-2-carboxylic Acid], for which, at MbtI [1], the remaining activity at 100 µM came out at 1.6 ± 1.4% and the IC50 was 22 ± 1.8 µM. The compound also gave an MIC99 against M. bovis BCG [2] of 125 µM (≈ 37.4 µg/mL).
For the compound `N#Cc1cccc(-c2ccc(C(=O)O)o2)c1` [I], the MIC99 with M. bovis BCG [5] (compound I, M. bovis BCG) is 250 µM (≈ 53.3 µg/mL); with Mtb H37Rv, 250 µM (≈ 53.3 µg/mL). For the same compound, in the series on human cell lines, the “safety on human cell lines” value was “safe on several human cell lines”.
As for `N#Cc1cc(OCCOc2ccccc2)cc(-c2ccc(C(=O)O)o2)c1` [II], the IC50 at MbtI [6] is 12.1 µM. For the same compound, in the series with M. bovis BCG [5] (compound II), the MIC99 is 63 µM (≈ 22 µg/mL).
In the case of `CCCCCCOc1cc(C#N)cc(-c2ccc(C(=O)O)o2)c1` [Compound 1k, 5-(3-Cyano-5-(hexyloxy)phenyl)furan-2-carboxylic Acid], on MbtI [1], the remaining activity at 100 µM stood at 6 ± 6.1% and the IC50 is 9.9 ± 1.3 µM. In the series on M. bovis BCG [2], this compound registered an MIC99 of 63 µM (≈ 19.7 µg/mL). Besides, the “substrate of mycobacterial efflux pumps” value in series [7] is “not substrates of efflux pumps”.
For the compound `CCOc1cc(C#N)cc(-c2ccc(C(=O)O)o2)c1` [Compound 1a, 5-(3-Cyano-5-ethoxyphenyl)furan-2-carboxylic Acid], on MbtI [1], the remaining activity at 100 µM is 4.9 ± 2.3% and the IC50 was found to be 11.8 ± 0.6 µM. For the same compound, the MIC99 against M. bovis BCG [2] was more than 500 µM.
On the same counts, the results for `CCCOc1cc(C#N)cc(-c2ccc(C(=O)O)o2)c1` [Compound 1c, 5-(3-Cyano-5-propoxyphenyl)furan-2-carboxylic Acid] are 2.5 ± 0.4%, 18.5 ± 0.9 µM and 250 µM (≈ 67.8 µg/mL).
As to `CC(C)COc1cc(C#N)cc(-c2ccc(C(=O)O)o2)c1` [Compound 1e, 5-(3-Cyano-5-isobutoxyphenyl)furan-2-carboxylic Acid], on MbtI [1], the remaining activity at 100 µM worked out at 7 ± 3.1% and the IC50 is 11.2 ± 1.5 µM. This compound displayed an MIC99 in the series with M. bovis BCG [2] of 32 µM (≈ 9.13 µg/mL). In addition, the “siderophore production (CAS assay)” value in the series on siderophore production is given as “acted by impairing the production of siderophores”. Further, the time-killing behaviour result in the series on M. bovis BCG [8] was “bacteriostatic activity”. Besides, the “substrate of mycobacterial efflux pumps” value in [7] was “not substrates of efflux pumps”. In [4], the “reduction in Mtb intracellular burden by the free compound” value is “did not exhibit significant activity on infected macrophages; also recorded: detected only at the highest tested concentration (200 μM)”.
Consider `N#Cc1cc(OCC2CC2)cc(-c2ccc(C(=O)O)o2)c1` [Compound 1f, 5-(3-Cyano-5-(cyclopropylmethoxy)phenyl)furan-2-carboxylic Acid], for which, at MbtI [1], the “% RA (percentage of residual enzymatic activity)” value was determined as 20.6 ± 2.4% and the remaining activity at 100 µM worked out at 20%. The MIC99 in the series with M. bovis BCG [2] was found to be 125 µM (≈ 35.4 µg/mL).
As to `CCCCOc1cc(C#N)cc(-c2ccc(C(=O)O)o2)c1` [Compound 1d, 5-(3-Butoxy-5-cyanophenyl)furan-2-carboxylic Acid], on MbtI [1], the remaining activity at 100 µM is less than 1% and the IC50 is 0.9 ± 0.2 µM. Further, the MIC99 against M. bovis BCG [2] was 63 µM (≈ 18 µg/mL). The “substrate of mycobacterial efflux pumps” value in series [7] is “not substrates of efflux pumps”.

These data come from article PMC11912484 (Journal of Medicinal Chemistry, 2025).
